Test results reported in article PMC5322802 (Biochemistry, 2016).
Read-outs that look alike come from different tables or passages of the source.

Experiments:
[1] = molecular target: FABP1; settings: known Kd value, cited from earlier work
[2] = molecular target: T1, FABP1 (Mus musculus, UniProt P12710); experiment: cis-parinaroyl-CoA displacement from FABP1; format: binding, murine; settings: for fold stronger binding by FABP1 as compared to FABP3, FABP5, and FABP7: different displacement assays; for fold weaker binding to FABP1 than OEA: cis-parinaroyl-CoA displacement Kis; for Ki: displacement of FABP1-bound cis-parinaroyl-CoA (footnote a), 24°C, mean ± SEM, n=5, ND = no significant displacement
T1 sequence (P12710 1-127): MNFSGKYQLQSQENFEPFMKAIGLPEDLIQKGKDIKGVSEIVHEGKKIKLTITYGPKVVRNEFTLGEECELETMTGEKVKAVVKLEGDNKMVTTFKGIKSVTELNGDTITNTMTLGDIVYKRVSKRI

[3] = molecular target: T1, FABP1; experiment: DAUDA displacement from FABP1; format: binding, murine; settings: very high AEA concentration, e.g. 9 μM; not shown
[4] = molecular target: T1, FABP1; experiment: Direct binding to FABP1: quenching of intrinsic Tyr fluorescence; set-up: species or system murine; settings: FABP1 500nM, AEA 3μM
[5] = molecular target: T1, FABP1; experiment: ANS displacement from FABP1; format: binding, murine
[6] = molecular target: T1, FABP1; experiment: NBD-stearic acid displacement from FABP1; format: binding, murine; settings: not shown
[7] = molecular target: T2, ACBP (Mus musculus, UniProt P31786); experiment: Direct binding to ACBP: intrinsic Tyr/Trp fluorescence; set-up: species or system murine; settings: ACBP 500nM
T2 sequence (P31786 1-87): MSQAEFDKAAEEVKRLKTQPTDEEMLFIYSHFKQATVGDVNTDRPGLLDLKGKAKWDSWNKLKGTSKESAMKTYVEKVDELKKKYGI

[8] = molecular target: HSP70; settings: read-out: Kd of HSP70 binding AEA; cited from earlier work
[9] = in vivo; cited from earlier work
[10] = tested on: FABP4; settings: cited from earlier work
[11] = molecular target: T3, SCP2 (Homo sapiens, UniProt P22307); experiment: NBD-stearic acid displacement from SCP2; format: binding; settings: displacement of SCP2-bound NBD-stearic acid; SCP2 500nM, NBD-stearate 500nM
T3 sequence (P22307 21-143 isoform P22307-2 limits assumed): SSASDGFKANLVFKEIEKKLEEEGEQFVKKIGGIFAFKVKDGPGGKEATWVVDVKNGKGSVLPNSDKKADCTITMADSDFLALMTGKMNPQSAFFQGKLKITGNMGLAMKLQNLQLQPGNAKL

[12] = molecular target: T1, FABP1; experiment: NBD-AEA displacement from FABP1; format: binding, murine; settings: for displacement of / effect on FABP1-bound NBD-AEA (in words): FABP1 500nM, NBD-AEA 1μM
[13] = molecular target: T1, FABP1; experiment: FABP1 binding of fluorescent ligands; set-up: species or system murine; settings: read-out: Kd of FABP1 binding NBD-AEA; obtained herein (not shown)
[14] = molecular target: T3, SCP2; experiment: Direct binding to SCP2: intrinsic Trp fluorescence
[15] = FABP1 500nM, cis-parinaroyl-CoA 500nM

CC/C=C/C=C\C=C/C=C/CCCCCCCC(=O)SCCNC(=O)CCNC(=O)[C@H](O)C(C)(C)COP(=O)(O)OP(=O)(O)OC[C@H]1O[C@@H](n2cnc3c(N)ncnc32)[C@H](O)[C@@H]1OP(=O)(O)O (relative stereo) [cis-parinaroyl-CoA]
Kd ([1]; read-out: Kd1 of FABP1 binding cis-parinaroyl-CoA): 27 ± 4 nM | Kd ([1]; read-out: Kd2 of FABP1 binding cis-parinaroyl-CoA): 66 ± 8 nM

CCCCC/C=C\C/C=C\C/C=C\C/C=C\CCCC(=O)OC(CO)CO [2-AG, 2-arachidonoylglycerol]
fold stronger binding by FABP1 as compared to SCP2 [2]: ≥ 3 fold | maximal displacement of FABP1-bound cis-parinaroyl-CoA [2, 15]: about 50% | fold stronger binding by FABP1 as compared to FABP3, FABP5, and FABP7 [2]: 2–15 fold

CCCCC/C=C\C/C=C\C/C=C\C/C=C\CCCC(=O)NCCO [AEA, n-6 arachidonoylethanolamide]
displacement of FABP1-bound DAUDA [3]: 13% | maximal displacement of FABP1-bound cis-parinaroyl-CoA [2, 15]: about 50% | effect on FABP1 intrinsic Tyr fluorescence emission at 304 nm (in words) [4]: decreased | displacement of FABP1-bound ANS (in words) [5]: did not displace | displacement of FABP1-bound NBD-stearic acid (in words) [6]: did not displace | quenching of ACBP aromatic amino acid (Tyr) fluorescence emission (in words) [7]: neither OEA nor AEA quenched | Kd [8]: 3700 ± 500 nM

CCCCC/C=C\C/C=C\C/C=C\C/C=C\CCCC(=O)Nc1ccc(O)cc1 [AM404]
maximal displacement of FABP1-bound cis-parinaroyl-CoA [2, 15]: about 50%

CCCCC/C=C\C/C=C\C/C=C\C/C=C\CCCC(=O)O [ARA, arachidonic acid]
first-pass clearance by liver [9]: ~50%

CCc1c(-c2ccccc2)c(-c2ccccc2)nn1-c1ccccc1-c1cccc(OCC(=O)O)c1 [BMS309403]
affinity of FABP4 for BMS309403 [10]: < 2 nM | fold stronger binding by FABP1 than FABP3 ([2]; BMS309403): 10 fold | fold stronger binding by FABP1 than FABP5 ([2]; BMS309403): 12–50 fold | maximal displacement of FABP1-bound cis-parinaroyl-CoA (in words) [2, 15]: almost completely | Ki [11]: 5500 ± 500 nM

C=C(C)[C@@H]1CCC(C)=C[C@H]1c1c(O)cc(CCCCC)cc1O [Cannabidiol, cannabidiol]
maximal displacement of FABP1-bound cis-parinaroyl-CoA [2, 15]: about 50% | fold stronger binding by FABP1 as compared to FABP3, FABP5, and FABP7 [2]: 9–11 fold

CC/C=C\C/C=C\C/C=C\C/C=C\C/C=C\C/C=C\CCC(=O)NCCO [DHEA, n-3 docosahexaenoylethanolamide]
fold weaker binding to FABP1 than OEA [2]: 4–10 fold

CC/C=C\C/C=C\C/C=C\C/C=C\C/C=C\CCCC(=O)NCCO [EPEA, n-3 eicosapentaenoylethanolamide]
fold weaker binding to FABP1 than OEA [2]: 4–10 fold | Ki [2]: 390 ± 30 nM

CCCC(C)(C)c1ccc2c(c1)OC(C)(C)[C@@H]1CC=C(C)C[C@@H]21 [JWH-133]
Ki [2]: did not displace | Ki ([12]; displacement of FABP1-bound NBD-AEA (footnote b), 24°C, mean ± SEM, n=5, ND = no significant displacement): did not displace

O=C(CCC/C=C\C/C=C\C/C=C\C/C=C\CCCCCNc1ccc([N+](=O)[O-])c2nonc12)NCCO [NBD-AEA]
Kd [13]: 700 ± 100 nM

CCCCCCCC/C=C\CCCCCCCC(=O)NCCO [OEA, oleoylethanolamide]
Kd [14]: 390 nM | effect on SCP2 Trp fluorescence emission (in words) ([14]; SCP2 500nM, OEA 1.4 μM): significantly increased | quenching of ACBP aromatic amino acid (Tyr) fluorescence emission (in words) [7]: neither OEA nor AEA quenched

CC(=O)Nc1ccc(Nc2nc(-c3ccc(Cl)c(Cl)c3)cs2)cc1 [SCPI1]
Ki [11]: 680 ± 60 nM

CCCCCc1cc(O)c2c(c1)OC(C)(C)[C@@H]1CCC(C)=C[C@@H]21 [THC, Δ^9-tetrahydrocannabinol]
maximal displacement of FABP1-bound cis-parinaroyl-CoA [2, 15]: about 50% | displacement of / effect on FABP1-bound NBD-AEA (in words) [12]: essentially all

CCCCC/C=C\C/C=C\C/C=C\C/C=C\CCCC(=O)Nc1ccc(O)cc1C [VDM11]
maximal displacement of FABP1-bound cis-parinaroyl-CoA [2, 15]: about 50%

CCCCCCCC/C=C\CCCCCCCC(=O)SCCNC(=O)CCNC(=O)[C@H](O)C(C)(C)COP(=O)(O)OP(=O)(O)OC[C@H]1O[C@@H](n2cnc3c(N)ncnc32)[C@H](O)[C@@H]1OP(=O)(O)O [oleoyl-CoA]
quenching of ACBP aromatic amino acid (Tyr) fluorescence emission (in words) [7]: significantly quenched

SR-144528
displacement of / effect on FABP1-bound NBD-AEA (in words) [12]: increased the fluorescence
